Measurements published in PMC9239059, “Structure-Guided Synthesis of FK506 and FK520 Analogs with Increased Selectivity Exhibit In Vivo Therapeutic Efficacy against Cryptococcus” (mBio, 2022).
In brackets after ≈: the same amount, converted by molar mass.

What was measured:
[1] = molecular target: T1, FKBP12 (Candida albicans, UniProt C4YFI3+C4YS24+P28870); assay: BLI, compound-mediated ternary complex formation, […] compound; type: binding
T1 construct: gene RBP1; biotinylated (Avi-tagged) FKBP12; with CnA-CnB-calmodulin
T1 sequence (P28870 whole entry): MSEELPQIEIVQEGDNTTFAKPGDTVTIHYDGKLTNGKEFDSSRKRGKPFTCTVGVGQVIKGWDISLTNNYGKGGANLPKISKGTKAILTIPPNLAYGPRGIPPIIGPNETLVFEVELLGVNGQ
T1 sequence (C4YFI3 54-445): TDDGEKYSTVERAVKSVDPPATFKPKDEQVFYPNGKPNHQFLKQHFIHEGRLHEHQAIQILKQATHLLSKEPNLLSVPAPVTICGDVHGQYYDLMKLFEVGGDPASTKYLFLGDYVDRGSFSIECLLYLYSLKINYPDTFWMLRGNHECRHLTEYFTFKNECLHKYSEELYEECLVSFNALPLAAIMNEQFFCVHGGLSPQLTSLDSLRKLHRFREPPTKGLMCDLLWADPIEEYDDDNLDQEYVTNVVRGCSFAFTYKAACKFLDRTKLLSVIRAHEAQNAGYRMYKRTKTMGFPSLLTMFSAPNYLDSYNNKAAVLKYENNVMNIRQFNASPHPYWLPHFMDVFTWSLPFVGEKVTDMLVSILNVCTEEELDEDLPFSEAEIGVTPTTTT
T1 sequence (C4YS24 1-173): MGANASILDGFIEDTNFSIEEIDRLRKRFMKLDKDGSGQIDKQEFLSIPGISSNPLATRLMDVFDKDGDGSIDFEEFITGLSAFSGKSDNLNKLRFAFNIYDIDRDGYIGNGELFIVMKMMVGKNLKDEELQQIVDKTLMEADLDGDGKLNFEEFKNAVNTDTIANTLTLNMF
T1 sequence (P23286 whole entry partner): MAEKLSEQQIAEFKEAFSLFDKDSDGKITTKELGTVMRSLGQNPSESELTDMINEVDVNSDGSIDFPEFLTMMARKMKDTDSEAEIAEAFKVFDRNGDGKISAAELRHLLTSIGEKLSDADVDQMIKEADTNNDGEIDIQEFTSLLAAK

[2] = system: T2, Cryptococcus neoformans (H99); assay: microbe, parasite or virus in culture; parameters: CLSI M27-A3 broth microdilution in RPMI 1640 at 37 C, growth inhibition of C. neoformans (MIC)
T2 construct: H99
Experimental: In vitro antifungal activities of FK506, FK520, and analogs were assessed in RPMI 1640 (Sigma-Aldrich) for all strains tested. MICs/minimum effective concentrations (MECs) for each drug were measured using modified Clinical and Laboratory Standards Institute (CLSI) M38-A2 and M27-A3 standard in vitro antifungal susceptibility protocols. Broth microdilution assays for MIC/MEC assessment were performed as described previously ([33]). All antifungal assays with C. neoformans were performed at 37°C. Antifungal susceptibility testing for C. albicans was performed in the presence of a uniform 1 μg/mL concentration of fluconazole to sensitize the organism to calcineurin inhibition. MICs/minimum effective concentrations (MECs) were determined for each of the novel analogs against the three major human fungal pathogens, A. fumigatus, C. neoformans, and C. albicans. […] Thus, analogs of FK506 and FK520 can tolerate up to 100-fold reduction in antifungal activity and still be considered for in vivo testing. For C. neoformans, MICs were the most uniform and ranged from 0.2 to 2 μg/mL, which is between 4- and 40-fold reduced for antifungal activity. C. albicans MICs ranged from 0.2 to 6.25 μg/mL, which is between 10- and 312.5-fold reduced for activity. Despite being one of the most difficult to treat fungal infections, all six analogs were active against A. fumigatus with MECs ranging from 1 to 2 μg/mL or a 62.5- to 125-fold reduction in activity.

C=CC[C@@H]1/C=C(\C)C[C@H](C)C[C@H](OC)[C@H]2O[C@@](O)(C(=O)C(=O)N3CCCC[C@H]3C(=O)O[C@H](/C(C)=C/[C@@H]3CC[C@@H](O)[C@H](OC)C3)[C@H](C)[C@@H](O)CC1=O)[C@H](C)C[C@@H]2OC [FK506]
BLI, compound-mediated ternary complex formation, 10 μM compound [1]: along with compounds FK506, APX879, FK520, JH-FK-02, and JH-FK-05
MIC ([2]; Cryptococcus neoformans, read-out: MIC (μg/mL) against: / Cryptococcus neoformans (H99)^a): 0.05 µg/mL (≈ 0.0622 µM)

CC[C@@H]1/C=C(\C)C[C@H](C)C[C@H](OC)[C@H]2O[C@@](O)(C(=O)C(=O)N3CCCC[C@H]3C(=O)O[C@H](/C(C)=C/[C@@H]3CC[C@@H](O)[C@H](OC)C3)[C@H](C)[C@@H](O)CC1=O)[C@H](C)C[C@@H]2OC [FK520]
BLI, compound-mediated ternary complex formation, 10 μM compound [1]: along with compounds FK506, APX879, FK520, JH-FK-02, and JH-FK-05
MIC (μg/mL) against: / Cryptococcus neoformans (H99)^a ([2]; inhibitor): 0.05 µg/mL (≈ 0.0631 µM)
